Literature values, collected in patent publication US12239660B2, “Therapeutic composition and methods” (Viscera Labs, Inc., priority 2018, dated 2025).

Conditions: in vivo, po

For `O=C(O)c1cc(/N=N/c2ccc(S(=O)(=O)Nc3ccccn3)cc2)ccc1O` [sulfasalazin], the “drug released in the small intestine” value is given as 12%.
